Legend:
[1] = tested on: non-obstipative IBS patients; conditions: clinical tests, WO 99/17755, cited from earlier work
[2] = tested on: non-obstipative IBS patients; assay: 12-week placebo-controlled clinical double-blind study, adequate alleviation of IBS symptoms; assay type: in vivo, human; conditions: for Final success rate: all patients (471; both sexes); for Success rate (responder rate, adequate alleviation of IBS symptoms): provisional result (454 patients)
Description: The effect of cilansetron on non-obstipative IBS patients of both sexes was investigated in a 12-week placebo-controlled clinical double-blind study with randomized selection and parallel test groups. […] Likewise, those patients were included in the study who responded “No” to the question about pain/feeling of unwellness in the lower abdomen only in ≦50% of the cases or who judged their pain/feeling of unwellness in the lower abdomen as “restrictive” for <2 times over a two-week observation period. Cilansetron was used in doses of 1, 2, 8 and 16 mg. The patients were checked weekly for “adequate alleviation” (=primary effectiveness parameter) of their IBS symptoms (stomach pains such as pains in the abdomen, abnormal bowel activity). Stomach pains such as pains in the abdomen, nature of the stools and stool frequency were rated daily by the patients (=secondary effectiveness parameter). In a provisional result of the double-blind study, the data of a total of 454 patients (297 female patients and 157 male patients) were evaluated and plotted in the table below. Corresponding to the criteria on which the clinical double-blind study was based, in both patient subgroups of male IBS patients and female IBS patients the success rates relating to the “adequate alleviation” of the IBS symptoms as set forth in the table below were noted: The “primary effectiveness parameter” corresponds to the success rate (=“responder rate”) to the question, which was put weekly to the patients, as to whether they had experienced “adequate alleviation” of their IBS symptoms (pain/feeling of unwellness in the lower abdomen, abnormal bowel activity) during the course of the previous week. A “responder” is regarded as a patient who was treated for at least four weeks and who responded “Yes” to the question posed of whether “adequate alleviation” of his/her IBS symptoms had occurred for at least half of his/her treatment period. At the end of the double-blind study, the data of a total of 471 patients (308 female patients and 163 male patients) were evaluated. The final success rates were 40% for the placebo group, 62% for the dose 1 mg cilansetron (TID), 53% for the dose 2 mg cilansetron (TID), 55% for the dose 8 mg cilansetron (TID) and 63% for the dose 16 mg cilansetron (TID).

Row | Compound | Effectiveness on female IBS patients compared with male IBS patients [1] | Improvement in condition compared with the placebo group ([1]; male test subjects) | Final success rate ([2]; 1 mg TID, end of study) | Final success rate ([2]; 2 mg TID, end of study) | Final success rate ([2]; 8 mg TID, end of study) | Final success rate ([2]; 16 mg TID, end of study) | Response to treatment of non-obstipative IBS patients of both sexes ([2]; doses 1, 2, 8 and 16 mg) | Final success rates, male compared with female patient groups ([2]; end of study, greatest differences at 1 mg TID) | Success rate (responder rate, adequate alleviation of IBS symptoms) ([2]; female patients, 1 mg TID) | Success rate (responder rate, adequate alleviation of IBS symptoms) ([2]; female patients, 2 mg TID) | Success rate (responder rate, adequate alleviation of IBS symptoms) ([2]; female patients, 8 mg TID) | Success rate (responder rate, adequate alleviation of IBS symptoms) ([2]; female patients, 16 mg TID) | Success rate (responder rate, adequate alleviation of IBS symptoms) ([2]; male patients, 1 mg TID) | Success rate (responder rate, adequate alleviation of IBS symptoms) ([2]; male patients, 2 mg TID) | Success rate (responder rate, adequate alleviation of IBS symptoms) ([2]; male patients, 8 mg TID) | Success rate (responder rate, adequate alleviation of IBS symptoms) ([2]; male patients, 16 mg TID)
1 | Cc1[nH]cnc1CN1CCc2c(c3ccccc3n2C)C1=O [alosetron] | significantly better effectiveness on female IBS patients | no significant improvement in condition compared with the placebo group |  |  |  |  |  |  |  |  |  |  |  |  |  | 
2 | Cc1nccn1C[C@H]1CCc2c(c3cccc4c3n2CCC4)C1=O [Cilansetron, (R)-(−)-4,5,6,8,9,10-hexahydro-10-[(2-methyl-1H-imidazol-1-yl)methyl]-11H-pyrido-[3,2,1-jk]-carbazol-11-one] |  |  | 62% | 53% | 55% | 63% | respond to the treatment with cilansetron in all the dosages investigated | very similar for the male and female patient groups | 69.6% | 60.3% | 56.9% | 61.4% | 51.3% | 63.0% | 56.3% | 58.6%

Reference: patent US20030125349A1, “Medicament containing cilansetron for the treatment of non-obstipative male irritable bowel syndrome patients” (Solvay Pharmaceuticals GmbH, priority 2000, published 2003)
